Test results: patent US20170029451A1, “BRANCHED CHAIN ACYCLIC NUCLEOSIDE PHOSPHONATE ESTERS AND METHODS OF SYNTHESIS AND USES THEREOF” (CHIMERIX, INC., priority 2013, published 2017)
Where two headings read alike, the source gives them in different places.

Legend:
in vitro [1] = conditions: human
Epstein-Barr virus = assay: DNA Hybridization Assay for EBV in Akata cells; type: cell-based; conditions: human gammaherpesvirus 4, read-out: Efficacy DNA Hybridization Assay (EC50)
Protocol: Akata cells latently infected with EBV were obtained from John Sixbey. The GS strain of HHV-6A was obtained through the NIH AIDS Research and Reference Reagent Program.
Each experiment that evaluated the antiviral activity of the compounds included both positive and negative control compounds to ensure the performance of each assay. Concurrent assessment of cytotoxicity was also performed for each study at equivalent levels of compound exposure. When sufficient material was available, multiple assays were performed for each compound evaluation to obtain statistical data.
Assays for EBV were performed in Akata cells that were induced to undergo a lytic infection with 50 μg/ml of a goat anti-human IgG antibody by standard methods. Experimental compounds were diluted in round bottom 96-well plates to yield concentrations ranging from 20 to 0.016 μM. Akata cells were added to the plates at a concentration of 4×10^4 cells per well and incubated for 72 h. For HHV-6 assays, compounds were serially diluted in 96-well plates then 1×10^4 uninfected HSB-2 or Molt-3 cells were added to each well. Infection was initiated by adding HHV-6A infected HSB-2 cells, or HHV-6B infected Molt-3 cells, at a ratio of approximately 1 infected cell for every 10 uninfected HSB-2 cells or Molt-3 cells respectively and incubated for 7 d at 37° C. […]

[2] = system: Herpes Simplex Virus 1 (Strain E-377); assay: Plaque reduction assay, HSV-1 in human foreskin fibroblast cells; type: cell-based; conditions: Human alphaherpesvirus 1; Strain E-377, human foreskin fibroblast cells
in vitro [3] = conditions: human; remark: listed apart in the source
[4] = system: human foreskin fibroblast cells; assay: Neutral red cytotoxicity assay in human foreskin fibroblast cells; conditions: read-out: VACV CC50, μm, parallel to VACV assay (second printing of Table 4)
[5] = system: Cowpox Virus (Strain Brighton); assay: microbe, parasite or virus in culture; type: cell-based; conditions: Fibroblast, read-out: CPXV EC50, μM
[6] = system: Vaccinia Virus (Strain Copenhagen); assay: microbe, parasite or virus in culture; type: cell-based; conditions: Orthopoxvirus vaccinia, Fibroblast, read-out: VACV EC50, μM
[7] = system: Human Cytomegalovirus (HCMV); assay: HCMV EC50 in MRC-5 cells (qPCR of intracellular CMV DNA); type: cell-based; conditions: Human betaherpesvirus 5, MRC5
Protocol: Costar 96-well tissue culture plates were seeded with 20,000 MRC-5 cells/well in EMEM containing 2% Hyclone Standard Fetal Bovine Serum and 1% Hyclone Penicillin and Streptomycin. Outer wells were not used to minimize the edge-effect produced by extended incubations. Cells were inoculated with HCMV at an MOI of 0.01. Serial dilutions of test compounds were added to the cells and plates were incubated for 7 days at 37° C. in 5% CO2. […] Culture medium was gently removed from infected cells after the 7-day incubation. The cells were rinsed twice with ice-cold PBS, and then freeze/thawed once. Each well was incubated with 200 μL lysis buffer for 2 hours at 55° C. Lysis buffer included 0.5 mg/mL protease K, 50 mM KCl, 10 mM Tris-Cl pH 8.0, 2.5 mM MgCl2, 0.45% IGEPAL, and 0.45% Tween-20 dissolved in DEPC-treated water. Intracellular CMV DNA was measured by quantitative polymerase chain reaction (qPCR) using forward and reverse HCMV PCR primers, and a FAM-labeled probe. Absolute quantitation of viral copy number was performed using a standard curve with dilutions of a HCMV DNA amplicon containing sequences homologous to the amplified fragment. The following qPCR amplification conditions were used: 1 cycle at 95° C. for 10 minutes, followed by 45 cycles of 95° C. for 15 seconds and 60° C. for 60 seconds. The qPCR reactions were performed using an Applied Biosystems 7500 real Time PCR System. Gen 5 software (BioTek Instruments, Inc.) was used to calculate the concentration which inhibited the viral DNA levels of HCMV-infected MRC-5 cells by 50% (EC50).

[8] = Cytotoxicity (CC50) in MT4 cells; type: cell-based; conditions: human
Protocol: Costar 96-well tissue culture plates were seeded with 5,000 MT4 cells (NIH AIDS Reagents Program)/well in RPMI (Lonza, Cat 12-11F) containing 10% Hyclone Standard Fetal Bovine Serum (FBS, Cat 5H30088.03), 1% Hyclone Penicillin and Streptomycin (Cat SV30010), and 2 mM Lonza L-Glutamine (Cat 17-605E). Outer wells were not used to minimize the edge-effect produced by extended incubations. Serial dilutions of test compounds were added to the cells and plates were incubated for 6 days at 37° C. in 5% CO2. After 6 days of incubation 40 μL of Cell Titer 96® Aqueous MTS Reagent (Promega, G111) was added as directed by manufacturer to the 200 μL media in each well and incubated at 37° C. until the untreated-cell controls developed an 490 nm absorbance between 1.1 and 1.8. The final absorbance readings were read using a BioTek Synergy 2, and Gen 5 software (BioTek Instruments, Inc.) was used to calculate the concentration which inhibited MT4 cells by 50% (CC50).

HCMV (Strain AD169) = assay: Plaque reduction assay, HCMV AD169 in human foreskin fibroblast cells; type: cell-based, Human Cytomegalovirus (HCMV); conditions: Human betaherpesvirus 5, AD169, Fibroblast
[9] = system: HCMV UL54 resistant mutant 4955^R; assay: microbe, parasite or virus in culture; type: cell-based, Human Cytomegalovirus (HCMV); conditions: Human betaherpesvirus 5, Fibroblast
[10] = system: HCMV UL54 resistant mutant GDG^RP53; assay: microbe, parasite or virus in culture; type: cell-based, Human Cytomegalovirus (HCMV); conditions: Human betaherpesvirus 5, Fibroblast
[11] = system: HCMV UL54 resistant mutant D542E (HDP-CDV^R); assay: microbe, parasite or virus in culture; type: cell-based, Human Cytomegalovirus (HCMV); conditions: Human betaherpesvirus 5, Fibroblast
BKV (Gardner strain) = assay: BKV EC50 in Vero cells (qPCR of supernatant BKV DNA); type: cell-based, BK virus (BKV); conditions: Betapolyomavirus hominis; BKV in Vero cells (Table 7); read-out: BKV EC50
Protocol: Costar 96-well tissue culture plates were seeded with 10,000 Vero cells/well in DMEM containing 2% Hyclone Standard Fetal Bovine Serum (FBS, Cat 5H30088.03) and 1% Hyclone Penicillin and Streptomycin. Outer wells were not used to minimize the edge-effect produced by extended incubations. Cells were inoculated with 115 BKV DNA copies/cell (ATCC, Gardner strain). Serial dilutions of test compounds were added to the cells and plates were incubated for 10 days at 37° C. in 5% CO2. After the 10-day incubation, 50 μL supernatant was mixed with 50 μL 2× lysis buffer that provided a final concentration 0.5 mg/mL protease K, 50 mM KCl, 10 mM Tris-Cl pH 8.0, 2.5 mM MgCl2, 0.45% IGEPAL, and 0.45% Tween-20 dissolved in DEPC-treated water. Each plate was incubated for 2 hours at 55° C. Supernatant BKV DNA was measured by quantitative polymerase chain reaction (qPCR) using forward and reverse BKV PCR primers, and a FAM-labeled probe. Absolute quantitation of viral copy number was performed using a standard curve with dilutions of a BKV DNA amplicon containing sequences homologous to the amplified fragment. The following qPCR amplification conditions were used: 1 cycle at 95° C. for 10 minutes, followed by 45 cycles of 95° C. for 15 seconds and 60° C. for 60 seconds. The qPCR reactions were performed using an Applied Biosystems 7500 real Time PCR System. Gen 5 software (BioTek Instruments, Inc.) was used to calculate the concentration which inhibited the viral DNA levels of BKV-infected Vero cells by 50% (EC50).

[12] = system: Influenza virus A/CA/10/2009; assay: microbe, parasite or virus in culture; type: cell-based; conditions: unidentified influenza virus, MDCK, read-out: A/CA/10/2009 (EC50, μM)
in vitro [13] = conditions: dog
[14] = system: Influenza virus B/FL/4/2006; assay: microbe, parasite or virus in culture; type: cell-based; conditions: unidentified influenza virus, MDCK, read-out: B/FL/4/2006 (EC50, μM)
[15] = Mean XC50 (Table 9), read-out: HCMV EC50
[16] = Mean XC50 (Table 9), read-out: MT4 cytotoxicity CC50

Nc1nc2c(ncn2COCCO)c(=O)[nH]1 [Acyclovir, reference compound]
CC50 (in vitro [1]): > 100 µM
EC50 (Epstein-Barr virus): 7000 nM
EC50 [2]: 2200 nM
CC50 (in vitro [3]): > 100000 nM

Nc1ccn(C[C@@H](CO)OCP(=O)(O)O)c(=O)n1 [Cidofovir, reference compound]
CC50 [4]: > 300000 nM
CC50 (in vitro [1]; CPXV CC50, μM, Human Foreskin Fibroblast Cells, parallel to CPXV assay): > 300 µM
EC50 [5]: 30.5 µM
EC50 [6]: 22.4 µM

CCCCCCCCCCCCCCCCOCCCOP(=O)(O)CO[C@H](CO)Cn1ccc(=O)[nH]c1=O [Compound 24]
EC50 [7, 15]: 8 nM
CC50 at 6 days [8, 16]: 13500 nM

Nc1nc(O)c2ncn(COC(CO)CO)c2n1 [Ganciclovir, reference compound]
CC50 (in vitro [1]): > 100 µM
EC50 (HCMV (Strain AD169); Strain AD169, human foreskin fibroblast cells, read-out: HCMV EC50): 1500 nM

CCCCCCCCCCCCCCCCOCCCOP(=O)(O)CO[C@H](CO)Cn1ccc(N)nc1=O [HDP-CDV, Hexadecyloxypropyl-Cidofovir, reference compound]
EC50 ([9]; read-out: EC50 μM, Virus 4955^R, human foreskin fibroblast cells): 0.0013 µM
EC90 ([9]; read-out: EC90 μM): 0.006 µM
EC50 ([7]; HCMV in MRC-5 cells (Table 7), read-out: CMV EC50): 0.4 nM
EC50 [7, 15]: 0.3 nM
EC50 (HCMV (Strain AD169); Virus AD169, human foreskin fibroblast cells (Table 3), read-out: EC50): 1 nM
EC50 ([10]; read-out: EC50 μM, Virus GDG^RP53, human foreskin fibroblast cells): 0.0053 µM
EC90 ([10]; read-out: EC90 μM): 0.0316 µM
EC50 ([11]; read-out: EC50 μM, Virus D542E (HDP-CDV^R), human foreskin fibroblast cells): 0.0295 µM
EC90 ([11]; read-out: EC90 μM): 0.153 µM
EC50 (BKV (Gardner strain)): 18 nM
CC50 at 6 days ([8]; MT4 cells (Table 7), read-out: MT4 CC50): 60 nM
CC50 at 6 days [8, 16]: 60 nM

CCOC(=O)C1=C[C@@H](OC(CC)CC)[C@H](NC(C)=O)[C@@H](N)C1 [Oseltamivir, reference compound]
EC50 [12]: 0.17 µM
CC50 (in vitro [13]): > 20000 nM
EC50 [14]: 16.2 µM
